Each compound was assayed on BT-474 (assay: normalised response (% of control), CellTox Green; higher = less cell death (100 = DMSO, 0 = benzethonium chloride kill control)). Details: incubation time: 72 h.
Procedure, shortened: (§1)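 Normalised signals at single concentrations make up the values. They come from breast cancer cell lines seeded (20 µl suspension) into 384-well plates with compound at 5 concentrations in 10-fold steps over a compound-specific 10,000-fold range, incubated 72 h, and read for CellTox Green fluorescence then CellTiter-Glo luminescence. Each plate was normalised to 0.1 % DMSO (100) and a positive kill control (0).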

Compound	normalised response [%]
Cc1cccc(-c2nn3c(c2-c2ccnc4ccc(C(N)=O)cc24)CCC3)n1 [Galunisertib] (100 nM)	102
O=C(NC[C@H](O)CO)c1ccncc1Nc1ccc(I)cc1F [Pimasertib] (1000 nM)	78.8
Cn1cc(CNCC2CCN(c3ncc(C(=O)NO)cn3)CC2)c2ccccc21 [Quisinostat] (100 nM)	45.6

The compounds below were run on HCC1599 in the same assay as above. Details: incubation time: 72 h.
Procedure, shortened: as §1

Compound	normalised response [%]
CC/C(=C(\c1ccc(O)cc1)c1ccc(OCCN(C)C)cc1)c1ccccc1 [4-hydroxytamoxifen] (1000 nM)	95.8
O=C(Nc1c[nH]nc1-c1nc2ccc(CN3CCOCC3)cc2[nH]1)NC1CC1 [AT9283] (100 nM)	110
CC(=O)OC[C@H]1O[C@@H]([S-])[C@H](OC(C)=O)[C@@H](OC(C)=O)[C@@H]1OC(C)=O.CCP(CC)CC.[Au+] [Auranofin] (250 nM)	104
O=S(=O)(c1cccc2cnccc12)N1CCCNCC1 [Fasudil] (5000 nM)	103
Cc1cccc(-c2nn3c(c2-c2ccnc4ccc(C(N)=O)cc24)CCC3)n1 [Galunisertib] (100 nM)	109
O=C(NC[C@H](O)CO)c1ccncc1Nc1ccc(I)cc1F [Pimasertib] (1000 nM)	111
Cn1cc(CNCC2CCN(c3ncc(C(=O)NO)cn3)CC2)c2ccccc21 [Quisinostat] (100 nM)	86.8

The compounds below were run on BT-549 in the same assay as above. Details: incubation time: 72 h.
Procedure, shortened: as §1

Compound	normalised response [%]
CC/C(=C(\c1ccc(O)cc1)c1ccc(OCCN(C)C)cc1)c1ccccc1 [4-hydroxytamoxifen] (1000 nM)	114
O=C(Nc1c[nH]nc1-c1nc2ccc(CN3CCOCC3)cc2[nH]1)NC1CC1 [AT9283] (100 nM)	121
CC(=O)OC[C@H]1O[C@@H]([S-])[C@H](OC(C)=O)[C@@H](OC(C)=O)[C@@H]1OC(C)=O.CCP(CC)CC.[Au+] [Auranofin] (250 nM)	103
O=S(=O)(c1cccc2cnccc12)N1CCCNCC1 [Fasudil] (5000 nM)	99.9
Cc1cccc(-c2nn3c(c2-c2ccnc4ccc(C(N)=O)cc24)CCC3)n1 [Galunisertib] (100 nM)	121
O=C(NC[C@H](O)CO)c1ccncc1Nc1ccc(I)cc1F [Pimasertib] (1000 nM)	142
Cn1cc(CNCC2CCN(c3ncc(C(=O)NO)cn3)CC2)c2ccccc21 [Quisinostat] (100 nM)	92.3

These compounds were tested on MFM-223 in the same assay as above. Details: incubation time: 72 h.
Procedure, shortened: as §1

Compound	normalised response [%]
CC/C(=C(\c1ccc(O)cc1)c1ccc(OCCN(C)C)cc1)c1ccccc1 [4-hydroxytamoxifen] (1000 nM)	95.9
O=C(Nc1c[nH]nc1-c1nc2ccc(CN3CCOCC3)cc2[nH]1)NC1CC1 [AT9283] (100 nM)	103
CC(=O)OC[C@H]1O[C@@H]([S-])[C@H](OC(C)=O)[C@@H](OC(C)=O)[C@@H]1OC(C)=O.CCP(CC)CC.[Au+] [Auranofin] (250 nM)	98.4
O=S(=O)(c1cccc2cnccc12)N1CCCNCC1 [Fasudil] (5000 nM)	94.8
Cc1cccc(-c2nn3c(c2-c2ccnc4ccc(C(N)=O)cc24)CCC3)n1 [Galunisertib] (100 nM)	98.5
O=C(NC[C@H](O)CO)c1ccncc1Nc1ccc(I)cc1F [Pimasertib] (1000 nM)	100
Cn1cc(CNCC2CCN(c3ncc(C(=O)NO)cn3)CC2)c2ccccc21 [Quisinostat] (100 nM)	72.8

What follows are compounds tested on MCF-10A in the same assay as above. Details: incubation time: 72 h.
Procedure, shortened: as §1

Compound	normalised response [%]
CC/C(=C(\c1ccc(O)cc1)c1ccc(OCCN(C)C)cc1)c1ccccc1 [4-hydroxytamoxifen] (1000 nM)	103
O=C(Nc1c[nH]nc1-c1nc2ccc(CN3CCOCC3)cc2[nH]1)NC1CC1 [AT9283] (100 nM)	70.3
CC(=O)OC[C@H]1O[C@@H]([S-])[C@H](OC(C)=O)[C@@H](OC(C)=O)[C@@H]1OC(C)=O.CCP(CC)CC.[Au+] [Auranofin] (250 nM)	115
O=S(=O)(c1cccc2cnccc12)N1CCCNCC1 [Fasudil] (5000 nM)	83.4
Cc1cccc(-c2nn3c(c2-c2ccnc4ccc(C(N)=O)cc24)CCC3)n1 [Galunisertib] (100 nM)	59.8
O=C(NC[C@H](O)CO)c1ccncc1Nc1ccc(I)cc1F [Pimasertib] (1000 nM)	106
Cn1cc(CNCC2CCN(c3ncc(C(=O)NO)cn3)CC2)c2ccccc21 [Quisinostat] (100 nM)	97.8

What follows are compounds tested on CAL-51 in the same assay as above. Details: incubation time: 72 h.
Procedure, shortened: as §1

Compound	normalised response [%]
CC/C(=C(\c1ccc(O)cc1)c1ccc(OCCN(C)C)cc1)c1ccccc1 [4-hydroxytamoxifen] (1000 nM)	108

From the supplement of paper PMC4862054
